The results in this text go back to ChEMBL document CHEMBL3045976, “Synthesis of biphenyl derivatives as ACE and -amylase inhibitors” (Med Chem Res, 2013).

Active and inactive are the calls of the source. The rule behind the calls is not given here.

Test [1] deals with Alpha amylase (Homo sapiens) (UniProt P0DUB6). Kind of test: Inhibition of alpha-amylase (unknown origin) using starch as substrate at 100 to 500 ug incubated for 10 min prior to substrate addition measured after 15 min by DNSA method relative to control.
Test [2] deals with Angiotensin-converting enzyme (Homo sapiens) (UniProt P12821). Nature of the test: Inhibition of ACE (unknown origin) using Hippuryl-His-Leu as substrate at 1 to 10 ug incubated for 10 min prior to substrate addition measured after 45 min by spectrophotometric analysis relative to control.
The target is the same in test [3]. Kind of test: Inhibition of ACE (unknown origin) using Hippuryl-His-Leu as substrate at 10 ug incubated for 10 min prior to substrate addition measured after 45 min by spectrophotometric analysis relative to control.

Chain of Alpha amylase (Homo sapiens) (P0DUB6 whole entry, looked up): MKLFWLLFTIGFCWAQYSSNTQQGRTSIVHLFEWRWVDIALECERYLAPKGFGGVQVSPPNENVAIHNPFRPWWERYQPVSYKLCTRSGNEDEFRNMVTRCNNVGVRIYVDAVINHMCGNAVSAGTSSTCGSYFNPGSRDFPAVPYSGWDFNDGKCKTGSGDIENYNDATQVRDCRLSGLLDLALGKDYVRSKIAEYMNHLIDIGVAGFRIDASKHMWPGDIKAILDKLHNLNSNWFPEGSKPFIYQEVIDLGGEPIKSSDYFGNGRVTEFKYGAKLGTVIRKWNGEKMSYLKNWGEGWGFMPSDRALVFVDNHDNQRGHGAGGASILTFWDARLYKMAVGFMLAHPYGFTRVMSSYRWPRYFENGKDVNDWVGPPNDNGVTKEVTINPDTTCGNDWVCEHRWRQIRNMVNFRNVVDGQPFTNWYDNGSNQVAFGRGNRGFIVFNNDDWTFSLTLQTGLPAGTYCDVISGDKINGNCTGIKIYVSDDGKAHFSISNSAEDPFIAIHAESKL
Chain of Angiotensin-converting enzyme (Homo sapiens) (P12821 whole entry): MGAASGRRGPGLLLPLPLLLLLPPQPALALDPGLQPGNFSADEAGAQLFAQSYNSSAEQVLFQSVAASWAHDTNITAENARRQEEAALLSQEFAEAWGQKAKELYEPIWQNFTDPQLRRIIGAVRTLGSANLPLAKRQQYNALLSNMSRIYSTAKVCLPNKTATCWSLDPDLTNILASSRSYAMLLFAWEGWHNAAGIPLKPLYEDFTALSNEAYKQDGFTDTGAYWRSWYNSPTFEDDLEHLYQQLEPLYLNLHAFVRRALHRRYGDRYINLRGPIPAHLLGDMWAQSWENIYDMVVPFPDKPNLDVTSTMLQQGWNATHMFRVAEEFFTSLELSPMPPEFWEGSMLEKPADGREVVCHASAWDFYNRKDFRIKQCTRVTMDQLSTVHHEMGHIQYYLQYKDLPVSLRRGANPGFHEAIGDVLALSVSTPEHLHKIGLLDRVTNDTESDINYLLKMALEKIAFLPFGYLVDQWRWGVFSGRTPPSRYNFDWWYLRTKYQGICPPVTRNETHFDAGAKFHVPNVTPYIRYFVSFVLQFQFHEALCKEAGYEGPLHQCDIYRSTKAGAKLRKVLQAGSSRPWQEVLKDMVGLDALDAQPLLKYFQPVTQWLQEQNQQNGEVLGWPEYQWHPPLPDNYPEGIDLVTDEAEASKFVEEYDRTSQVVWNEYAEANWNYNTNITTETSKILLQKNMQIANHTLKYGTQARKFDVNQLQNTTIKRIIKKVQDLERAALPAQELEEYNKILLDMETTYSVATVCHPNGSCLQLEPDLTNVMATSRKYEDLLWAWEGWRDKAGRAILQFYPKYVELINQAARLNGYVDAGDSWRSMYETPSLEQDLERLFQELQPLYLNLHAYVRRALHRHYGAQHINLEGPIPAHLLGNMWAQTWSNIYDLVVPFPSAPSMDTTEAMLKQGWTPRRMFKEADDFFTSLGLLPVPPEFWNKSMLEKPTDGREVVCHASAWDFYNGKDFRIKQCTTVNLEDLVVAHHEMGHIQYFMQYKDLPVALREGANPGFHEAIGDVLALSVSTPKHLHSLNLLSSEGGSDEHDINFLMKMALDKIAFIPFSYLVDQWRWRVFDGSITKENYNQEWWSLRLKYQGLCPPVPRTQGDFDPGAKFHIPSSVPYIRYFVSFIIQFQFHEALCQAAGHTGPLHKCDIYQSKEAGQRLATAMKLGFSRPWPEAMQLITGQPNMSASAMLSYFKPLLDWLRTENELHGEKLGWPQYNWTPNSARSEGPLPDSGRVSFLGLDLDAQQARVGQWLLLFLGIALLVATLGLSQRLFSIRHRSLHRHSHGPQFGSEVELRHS

Consider `Cc1nnc(-c2ccccc2-c2ccc(CN3CCC(C(=O)O)CC3)cc2)o1`, for which the inhibition result in test [1] and in test [2] was “inactive” each time.
In the case of `OCCOCCN1CCN(Cc2ccc(-c3ccccc3-c3nnn[nH]3)cc2)CC1`, the inhibition result in test [2] is “inactive”.
With `O=C1CSC(=O)N1Cc1ccc(-c2ccccc2-c2nnn[nH]2)cc1`, in test [2], the inhibition result is “inactive”.
`Cc1nnc(-c2ccccc2-c2ccc(CN3CCN(CCOCCO)CC3)cc2)o1`: the inhibition entry in test [1] and in test [2] was “inactive” in each case.
As for `Cc1nnc(-c2ccccc2-c2ccc(CN3CCN(C)CC3)cc2)o1`, the inhibition entry in test [1] and in test [2] was “inactive” each time.
Take `Cc1nnc(-c2ccccc2-c2ccc(CN3CCNCC3)cc2)o1`: the inhibition result in test [1] and in test [2] was “inactive” each time.
In test [3], `CN1CCN(Cc2ccc(-c3ccccc3-c3nnn[nH]3)cc2)CC1` showed an inhibition of 92%.
`c1ccc(-c2nnn[nH]2)c(-c2ccc(CN3CCNCC3)cc2)c1` showed an inhibition in test [3] of 83%.
As for `Cc1nnc(-c2ccccc2-c2ccc(Cn3cncn3)cc2)o1`, the inhibition entry in test [1] and in test [2] was “inactive” throughout.
Consider `Cc1nnc(-c2ccccc2-c2ccc(Cn3ccnc3)cc2)o1`, for which the inhibition result in test [1] and in test [2] was “inactive” each time.
Consider `c1ccc(-c2nnn[nH]2)c(-c2ccc(Cn3ccnc3)cc2)c1`, for which, in test [3], the inhibition is 80%.
Take `Cc1nnc(-c2ccccc2-c2ccc(CN3CCOCC3)cc2)o1`: the inhibition entry in test [1] and in test [2] was “inactive” in each case.
On to `c1ccc(-c2nnn[nH]2)c(-c2ccc(CN3CCOCC3)cc2)c1`, for which the inhibition result in test [1] and in test [2] was “inactive” in each case.
In the case of `O=C(O)C1CCN(Cc2ccc(-c3ccccc3-c3nnn[nH]3)cc2)CC1`, the inhibition entry in test [1] and in test [2] was “inactive” each time.
As for `c1ccc(-c2nnn[nH]2)c(-c2ccc(Cn3cncn3)cc2)c1`, in test [3], the inhibition is 80%.
Turning to `Cc1nnc(-c2ccccc2-c2ccc(CN3C(=O)CSC3=O)cc2)o1`, the inhibition entry in test [1] and in test [2] was “inactive” throughout.

The term inhibition denotes the drop in the measured response relative to a control, in per cent.
